What all share (type): in vivo, human
For assay [1], the system named is patients who experience first psychotic episode. Put plainly: CANTAB Spatial Working Memory (SWM), adjuvant study. Particulars: atypical antipsychotic drug+minocycline 200 mg/day vs +placebo. As for the experimental part: (§1) The study was carried out in patients who experience first psychotic episode, and has followed the patient for a total duration of 6 months. As the study examines Minocycline as an adjuvant drug, the sample includes patients receiving one of the following atypical anti-psychotic drugs: Risperdal, Zyprexa, Geodon, Seroquel, and Leponex. […] In addition, the subjects were assessed by a battery of computerized neuropsychological tests (CANTAB—Cambridge Neuropsychological Test Automated Battery), measuring attention, memory, and planning. Executive function was tested by two tasks of the CANTAB: planning was tested by a computerized modification of the Tower of London, and working memory by a spatial working memory task. Minocycline was given as an add-on therapy. […] Clinical status was evaluated by the aforementioned scales at the onset of the study, every week for the first 6 weeks, and then once a month for the rest of the study period. Cognitive capabilities were assessed by the neuropsychological battery of tests according to the following schedule: upon initiation of the study (referred to as visit 1 in FIGS. 5-8), 3 months (referred to as visit 2 in FIGS. 5-8), and 6 months (referred to as visit 3 in FIGS. 5-8) after the start of the study. […]

For assay [2] the test system is unchanged. Briefly: GRAF score, adjuvant study. The note with it: atypical antipsychotic drug+minocycline 200 mg/day vs +placebo; group x time p<0.05. Here is the method:
The study was carried out in patients who experience first psychotic episode, and has followed the patient for a total duration of 6 months. As the study examines Minocycline as an adjuvant drug, the sample includes patients receiving one of the following atypical anti-psychotic drugs: Risperdal, Zyprexa, Geodon, Seroquel, and Leponex. […] Initial evaluation included the following clinical measures: • SCID (for reliability of diagnosis) • CGI (Clinical Global Impression) • PANSS (Positive and Negative Syndrome Scale for Schizophrenia) • SANS (Scale for the Assessment of Negative Symptoms) • Calgary Depression Scale for Schizophrenia • GAF • GRAF • Insight and Treatment Attitudes Questionnaire • QLS (Quality of Life Scale) • Multinomah Community Ability Scale • Extrapyramidal Side Effects Scale. Minocycline was given as an add-on therapy. […] Clinical status was evaluated by the aforementioned scales at the onset of the study, every week for the first 6 weeks, and then once a month for the rest of the study period. Cognitive capabilities were assessed by the neuropsychological battery of tests according to the following schedule: upon initiation of the study (referred to as visit 1 in FIGS. 5-8), 3 months (referred to as visit 2 in FIGS. 5-8), and 6 months (referred to as visit 3 in FIGS. 5-8) after the start of the study. […]

Assay [3] has the same test system. Briefly: CANTAB Spatial Recognition Memory (SRM), adjuvant study. Particulars: atypical antipsychotic drug+minocycline 200 mg/day vs +placebo; time x group p<0.01. As for the experimental part: as §1, with “Memory” for “Executive function”, “using spatial and pattern recognition and spatial span” for “by two”, “CANTAB.” for “CANTAB: planning was tested by a computerized modification of the Tower of London, and working memory by a spatial working memory task.”, “therapy. Prior to randomization into minocycline/placebo adjuvant treatment, a preliminary (lead-in phase) screening phase of placebo treatment was undertaken: Placebo was given as an adjuvant to all patients for two weeks.” for “therapy.”

As to `CN(C)c1ccc(O)c2c1C[C@H]1C[C@H]3[C@H](N(C)C)C(O)=C(C(N)=O)C(=O)[C@@]3(O)C(O)=C1C2=O` [minocycline], in assay [1] (p<0.0001), the SWM between errors entry was “improved significantly more than the placebo group”. Also, in assay [1] (p<0.05), the SWM strategy score result is listed as “improved significantly more than the placebo group”. Besides, the GRAF score entry in assay [2] is reported as “greater improvement of the GRAF score”. In addition, the “SRM percent of correct responses” value in assay [3] is listed as “kept relatively steady scores”.

The record behind these values is patent US20130190275A1, “COMBINED THERAPIES OF ANTIPSYCHOTIC DRUGS AND TETRACYCLINES IN THE TREATMENT OF PSYCHIATRIC DISORDERS” (MOR RESEARCH APPLICATIONS LTD., priority 2006, published 2013).
